Experiments:
Type in all cases: in vivo
soybean (Gl) = assay: Test Example 6: crop plant selectivity by upland field soil treatment (soybean), phytotoxicity; set-up: scale not given here; conditions: 21st day after application
Procedure, shortened: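 Seeds are sown in sand and covered with soil. The soil is treated with test compound. Pots are kept in a greenhouse. Weed control and soybean damage are rated visually 21 days after application.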

barnyardgrass (Ec) [1] = assay: Test Example 2: herbicidal effects by upland field soil treatment; conditions: 100 g of the active ingredient per 10 ares;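 note: grade of growth control; 5 = at least 90%; 4 = 70 to 90%; 3 = 50 to 70%; 2 = 30 to 50%; 1 = 10 to 30%; 0 = under 10%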
From the text: (§1) (Test on Herbicidal Effects by Upland Field Soil Treatment)

pale smartweed (Po) [2] = assay: as above; conditions: 100 g of the active ingredient per 10 ares
From the text: as §1

[3] = test system: common lambsquarters (Ch); assay: as above; conditions: 100 g of the active ingredient per 10 ares
From the text: as §1

slender amaranth (Am) = assay: as above; conditions: 100 g of the active ingredient per 10 ares;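 note: grade of growth control; 5 = at least 90%; 4 = 70 to 90%; 3 = 50 to 70%; 2 = 30 to 50%; 1 = 10 to 30%; 0 = under 10%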
From the text: as §1

barnyardgrass (Ec) [4] = assay: Test Example 3: herbicidal effects by upland field foliage treatment; set-up: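 grade of growth control; 5 = at least 90%; 4 = 70 to 90%; 3 = 50 to 70%; 2 = 30 to 50%; 1 = 10 to 30%; 0 = under 10%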
Procedure, shortened: (§2)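 Test plants had been raised from seed for 2 weeks in a greenhouse, in soil-covered sand pots of 120 cm^2, and were returned there after spraying.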

pale smartweed (Po) [5] = assay: as above; set-up: scale not given here
Procedure, shortened: as §2

[6] = test system: common lambsquarters (Ch); assay: as above; set-up: scale not given here
Procedure, shortened: as §2

rice flatsedge (Ci) = assay: as above; set-up: scale not given here
Procedure, shortened: as §2

Diaitaria ciliaris (Di) = assay: as above; set-up: scale not given here
Procedure, shortened: as §2

[7] = 21st day after the application, index 0-5 of Table 47
[8] = 100 g of the active ingredient per 10 ares, evaluated on the 14th day after treatment
[9] = evaluated on the 21st day after application
[10] = 100 g active ingredient per 10 ares, evaluated 14th day after treatment

## CCOC(=O)c1cc(-c2ccc(C(F)(F)F)n(C)c2=O)c(F)cc1Cl [1-65]
Soybean (Gl); dose 1.6 g ai/10a
  Phytotoxicity Gl: 1
Soybean (Gl); dose 6.3 g ai/10a
  Phytotoxicity Gl: 1
Barnyardgrass (Ec) [1]; [7]
  Herbicidal effects Ec: 5
Pale smartweed (Po) [2]; [7]
  Herbicidal effects Po: 5
[3]; [7]
  Herbicidal effects Ch: 5
Slender amaranth (Am); [7]
  Herbicidal effects Am: 5
Barnyardgrass (Ec) [4]; [8]
  Herbicidal effects Ec: 5
Pale smartweed (Po) [5]; [8]
  Herbicidal effects Po: 5
[6]; [8]
  Herbicidal effects Ch: 5
Rice flatsedge (Ci); [8]
  Herbicidal effects Ci: 5
Diaitaria ciliaris (Di); [8]
  Herbicidal effects Di: 5

## Cn1c(C(F)(F)F)ccc(-c2cc(Cl)c(Cl)cc2F)c1=O [1-136]
Soybean (Gl); dose 1.6 g ai/10a
  Phytotoxicity Gl: 0
Soybean (Gl); dose 6.3 g ai/10a
  Phytotoxicity Gl: 1
Barnyardgrass (Ec) [1]; [7]
  Herbicidal effects Ec: 5
Pale smartweed (Po) [2]; [7]
  Herbicidal effects Po: 5
[3]; [7]
  Herbicidal effects Ch: 5
Slender amaranth (Am); [7]
  Herbicidal effects Am: 5
Barnyardgrass (Ec) [4]; [8]
  Herbicidal effects Ec: 5
Pale smartweed (Po) [5]; [8]
  Herbicidal effects Po: 5
[6]; [8]
  Herbicidal effects Ch: 5
Rice flatsedge (Ci); [8]
  Herbicidal effects Ci: 5
Diaitaria ciliaris (Di); [8]
  Herbicidal effects Di: 5

## COCc1cc2c(-c3ccc(C(F)(F)F)n(C)c3=O)c(F)cc(Cl)c2o1 [Compound No. 4-4, 3-(7-chloro-5-fluoro-2-methoxymethylbenzofuran-4-yl)-1-methyl-6-trifluoromethyl-2-(1H)-pyridone]
Soybean (Gl); dose 6.3 g ai/10a
  Phytotoxicity Gl: 2
Barnyardgrass (Ec) [1]; [9]
  Herbicidal effects Ec: 5
Pale smartweed (Po) [2]; [9]
  Herbicidal effects Po: 5
[3]; [9]
  Herbicidal effects Ch: 5
Slender amaranth (Am); [9]
  Herbicidal effects Am: 5
Barnyardgrass (Ec) [4]; [10]
  Herbicidal effects Ec: 5
Pale smartweed (Po) [5]; [10]
  Herbicidal effects Po: 5
[6]; [10]
  Herbicidal effects Ch: 5
Rice flatsedge (Ci); [10]
  Herbicidal effects Ci: 5
Diaitaria ciliaris (Di); [10]
  Herbicidal effects Di: 5

## C=CCN1C(=O)COc2cc(Cl)c(-c3ccc(C(F)(F)F)n(C)c3=O)cc21 [Compound 2-26]
Soybean (Gl); dose 6.3 g ai/10a
  Phytotoxicity Gl: 1
Barnyardgrass (Ec) [1]; [9]
  Herbicidal effects Ec: 5
Pale smartweed (Po) [2]; [9]
  Herbicidal effects Po: 5
[3]; [9]
  Herbicidal effects Ch: 5
Slender amaranth (Am); [9]
  Herbicidal effects Am: 5
Barnyardgrass (Ec) [4]; [10]
  Herbicidal effects Ec: 5
Pale smartweed (Po) [5]; [10]
  Herbicidal effects Po: 5
[6]; [10]
  Herbicidal effects Ch: 5
Rice flatsedge (Ci); [10]
  Herbicidal effects Ci: 5
Diaitaria ciliaris (Di); [10]
  Herbicidal effects Di: 5

## C=CCN1C(=O)COc2cc(F)c(-c3ccc(C(F)(F)F)n(C)c3=O)cc21 [Compound 2-7]
Soybean (Gl); dose 1.6 g ai/10a
  Phytotoxicity Gl: 0
Soybean (Gl); dose 6.3 g ai/10a
  Phytotoxicity Gl: 0
Barnyardgrass (Ec) [1]; [9]
  Herbicidal effects Ec: 5
Pale smartweed (Po) [2]; [9]
  Herbicidal effects Po: 5
[3]; [9]
  Herbicidal effects Ch: 5
Slender amaranth (Am); [9]
  Herbicidal effects Am: 5
Barnyardgrass (Ec) [4]; [10]
  Herbicidal effects Ec: 5
Pale smartweed (Po) [5]; [10]
  Herbicidal effects Po: 5
[6]; [10]
  Herbicidal effects Ch: 5
Rice flatsedge (Ci); [10]
  Herbicidal effects Ci: 5
Diaitaria ciliaris (Di); [10]
  Herbicidal effects Di: 5

## C=CCOc1cc(-c2ccc(C(F)(F)F)n(C)c2=O)c(F)cc1Cl [1-16]
Soybean (Gl); dose 1.6 g ai/10a
  Phytotoxicity Gl: 1
Barnyardgrass (Ec) [1]; [7]
  Herbicidal effects Ec: 5
Pale smartweed (Po) [2]; [7]
  Herbicidal effects Po: 5
[3]; [7]
  Herbicidal effects Ch: 5
Slender amaranth (Am); [7]
  Herbicidal effects Am: 5
Barnyardgrass (Ec) [4]; [8]
  Herbicidal effects Ec: 5
Pale smartweed (Po) [5]; [8]
  Herbicidal effects Po: 5
[6]; [8]
  Herbicidal effects Ch: 5
Rice flatsedge (Ci); [8]
  Herbicidal effects Ci: 5
Diaitaria ciliaris (Di); [8]
  Herbicidal effects Di: 5

## C#CC(C)Oc1cc(Cl)cc(F)c1-c1ccc(C(F)(F)F)n(C)c1=O (stereo not drawn) [1′-5]
Soybean (Gl); dose 1.6 g ai/10a
  Phytotoxicity Gl: 1
Soybean (Gl); dose 6.3 g ai/10a
  Phytotoxicity Gl: 2
Barnyardgrass (Ec) [1]; [9]
  Herbicidal effects Ec: 5
Pale smartweed (Po) [2]; [9]
  Herbicidal effects Po: 5
[3]; [9]
  Herbicidal effects Ch: 5
Slender amaranth (Am); [9]
  Herbicidal effects Am: 5
Barnyardgrass (Ec) [4]; [10]
  Herbicidal effects Ec: 5
Pale smartweed (Po) [5]; [10]
  Herbicidal effects Po: 5
[6]; [10]
  Herbicidal effects Ch: 5
Rice flatsedge (Ci); [10]
  Herbicidal effects Ci: 5
Diaitaria ciliaris (Di); [10]
  Herbicidal effects Di: 5

## C#CCOc1cc(-c2ccc(C(F)(F)F)n(C)c2=O)c(F)cc1Cl [1-18]
Soybean (Gl); dose 1.6 g ai/10a
  Phytotoxicity Gl: 1
Barnyardgrass (Ec) [1]; [7]
  Herbicidal effects Ec: 5
Pale smartweed (Po) [2]; [7]
  Herbicidal effects Po: 5
[3]; [7]
  Herbicidal effects Ch: 5
Slender amaranth (Am); [7]
  Herbicidal effects Am: 5
Barnyardgrass (Ec) [4]; [8]
  Herbicidal effects Ec: 5
Pale smartweed (Po) [5]; [8]
  Herbicidal effects Po: 5
[6]; [8]
  Herbicidal effects Ch: 5
Rice flatsedge (Ci); [8]
  Herbicidal effects Ci: 5
Diaitaria ciliaris (Di); [8]
  Herbicidal effects Di: 5

## C#CCSc1cc(-c2ccc(C(F)(F)F)n(C)c2=O)c(F)cc1Cl [1-44]
Soybean (Gl); dose 6.3 g ai/10a
  Phytotoxicity Gl: 1
Barnyardgrass (Ec) [1]; [7]
  Herbicidal effects Ec: 5
Pale smartweed (Po) [2]; [7]
  Herbicidal effects Po: 5
[3]; [7]
  Herbicidal effects Ch: 5
Slender amaranth (Am); [7]
  Herbicidal effects Am: 5
Barnyardgrass (Ec) [4]; [8]
  Herbicidal effects Ec: 5
Pale smartweed (Po) [5]; [8]
  Herbicidal effects Po: 5
[6]; [8]
  Herbicidal effects Ch: 5
Rice flatsedge (Ci); [8]
  Herbicidal effects Ci: 5
Diaitaria ciliaris (Di); [8]
  Herbicidal effects Di: 5

## Cn1c(C(F)(F)F)ccc(-c2c(F)cc(Cl)c3oc(CO)cc23)c1=O [Compound No. 4-5, 3-(7-chloro-5-fluoro-2-hydroxymethylbenzofuran-4-yl)-1-methyl-6-trifluoromethyl-2-(1H)-pyridone]
Soybean (Gl); dose 6.3 g ai/10a
  Phytotoxicity Gl: 2
Barnyardgrass (Ec) [1]; [9]
  Herbicidal effects Ec: 5
Pale smartweed (Po) [2]; [9]
  Herbicidal effects Po: 5
[3]; [9]
  Herbicidal effects Ch: 5
Slender amaranth (Am); [9]
  Herbicidal effects Am: 5
Barnyardgrass (Ec) [4]; [10]
  Herbicidal effects Ec: 5
Pale smartweed (Po) [5]; [10]
  Herbicidal effects Po: 5
[6]; [10]
  Herbicidal effects Ch: 5
Rice flatsedge (Ci); [10]
  Herbicidal effects Ci: 5
Diaitaria ciliaris (Di); [10]
  Herbicidal effects Di: 5

## CCc1cc2c(Cl)cc(F)c(-c3ccc(C(F)(F)F)n(C)c3=O)c2o1 [Compound 5-2]
Soybean (Gl); dose 6.3 g ai/10a
  Phytotoxicity Gl: 1
Barnyardgrass (Ec) [1]; [9]
  Herbicidal effects Ec: 5
Pale smartweed (Po) [2]; [9]
  Herbicidal effects Po: 5
[3]; [9]
  Herbicidal effects Ch: 5
Slender amaranth (Am); [9]
  Herbicidal effects Am: 5
Barnyardgrass (Ec) [4]; [10]
  Herbicidal effects Ec: 5
Pale smartweed (Po) [5]; [10]
  Herbicidal effects Po: 5
[6]; [10]
  Herbicidal effects Ch: 5
Rice flatsedge (Ci); [10]
  Herbicidal effects Ci: 5
Diaitaria ciliaris (Di); [10]
  Herbicidal effects Di: 5

## C#CCOc1cc(-c2ccc(C(F)(F)F)n(N)c2=O)c(F)cc1Cl [1-178]
Barnyardgrass (Ec) [1]; [9]
  Herbicidal effects Ec: 5
Pale smartweed (Po) [2]; [9]
  Herbicidal effects Po: 5
[3]; [9]
  Herbicidal effects Ch: 5
Slender amaranth (Am); [9]
  Herbicidal effects Am: 5
Barnyardgrass (Ec) [4]; [8]
  Herbicidal effects Ec: 5
Pale smartweed (Po) [5]; [8]
  Herbicidal effects Po: 5
[6]; [8]
  Herbicidal effects Ch: 5
Rice flatsedge (Ci); [8]
  Herbicidal effects Ci: 5
Diaitaria ciliaris (Di); [8]
  Herbicidal effects Di: 5

## COc1cc(-c2ccc(C(F)(F)F)n(N)c2=O)c(F)cc1Cl [1-179]
Barnyardgrass (Ec) [1]; [9]
  Herbicidal effects Ec: 5
Pale smartweed (Po) [2]; [9]
  Herbicidal effects Po: 5
[3]; [9]
  Herbicidal effects Ch: 5
Slender amaranth (Am); [9]
  Herbicidal effects Am: 5
Barnyardgrass (Ec) [4]; [8]
  Herbicidal effects Ec: 5
Pale smartweed (Po) [5]; [8]
  Herbicidal effects Po: 5
[6]; [8]
  Herbicidal effects Ch: 5
Rice flatsedge (Ci); [8]
  Herbicidal effects Ci: 5
Diaitaria ciliaris (Di); [8]
  Herbicidal effects Di: 5.

Reference: patent publication US6472348B1, “Pyridone derivatives and herbicides” (Kumiai Chemical Industry Co., Ltd., priority 1996, dated 2002)
